# Laboratory results from patent US7064117B2, “Anti-cancer 2,3-dihydro-1H-pyrrolo[3,2-f]quinoline complexes of cobalt and chromium” (Auckland Uniservices Limited, priority 2001, dated 2006).
# Like-named read-outs stand apart in the source and are kept apart here.
# Assays:
# UV4 cell line = assay: cytotoxicity, 4 h aerobic drug exposure, UV4; format: cell-based, Chinese hamster; settings: read-out: IC50 UV4
# SKOV3 [1] = assay: cytotoxicity, 4 h aerobic drug exposure, SKOV3; format: cell-based, human; settings: read-out: IC50 SKOV3
# EMT6 = assay: cytotoxicity, 4 h aerobic drug exposure, EMT6; format: cell-based, murine; settings: read-out: IC50 EMT6
# AA8 = assay: cytotoxicity, 4 h aerobic drug exposure, AA8; format: cell-based, Chinese hamster; settings: read-out: IC50 AA8
# [2] = test system: panel of mammalian cell lines; assay: cytotoxicity in a panel of mammalian cell lines (summary in words); settings: summary of Table 2
# SKOV3 [3] = assay: cytotoxicity under oxic and anoxic conditions, SKOV3; format: cell-based, human; settings: for IC50: Homo sapiens, SK-OV-3, 4 h exposure
# Protocol: (§1) The metal complexes also show an ability to be activated by endogenous enzymes under hypoxia, as shown for metal complex M1 in Table 4 and FIG. 2. […] Thus the metal complexes have utility as hypoxia- as well as radiation-activated cytotoxins.
# (§2) In Table 4, A549wt/s is a wild-type human […] carcinoma cell line, SKOV3 is a human ovarian cancer cell line and WiDr-2 is a clonal cell line derived from the WiDr human colon carcinoma line. IC50s (in μM are determined under both oxic and hypoxic conditions, and the hypoxic cytotoxicity ratio (HCR) is the average intra-experiment ratio of the IC50s measured under oxic and hypoxic conditions.
# HT29 cultures = assay: activation by endogenous enzymes under hypoxia (Table 4 and FIG. 2); format: cell-based; settings: summary of Table 4 and FIG. 2
# Description: as §1
# A549 wt/s = assay: cytotoxicity under oxic and anoxic conditions, A549 wt/s; format: cell-based, human; settings: for IC50: Homo sapiens, A549, 4 h exposure
# Protocol: as §1, §2
# [4] = 4 h aerobic exposure, mean ± sem
# [5] = Cricetulus griseus, CHO-AA8, 4 h
# [6] = average intra-experiment ratio of IC50s oxic/hypoxic
smiles,measurement,setting,value
Cl.Cl.Cl.Cl.O=S(=O)(O)CCCN1CCNCCN(CCCS(=O)(=O)O)CCNCC1,melting point,,279 to 281 °C
"C1CNCCNCCNCCN1 [Cyclen, reference compound]",IC50,UV4 cell line; [4],13800 ± 2180 µM
same,IC50,SKOV3 [1]; [4],11500 ± 4410 µM
same,IC50,EMT6; [4],9710 ± 2710 µM
same,IC50,AA8; [4],13300 ± 2670 µM
"COc1cc2cc(C(=O)N3CC(CCl)c4c3cc(NCCN)c3ccccc43)[nH]c2c(OC)c1OC.Cl.Cl (centres unmarked) [Compound 29, 5-(2-aminoethylamino)-3-[(5,6,7-trimethoxyindol-2-yl)carbonyl]-1-(chloromethyl)-1,2-dihydro-3H-benz[e]indole dihydrochloride]",melting point,,> 200 °C
same,IC50,"UV4 cell line; Cricetulus griseus, UV4, 4 h",0.0041 ± 0.0003 µM
same,cytotoxicity in words,[2],exceptionally cytotoxic
same,IC50,"SKOV3 [1]; Homo sapiens, SK-OV-3, 4 h",0.0062 µM
same,IC50,"EMT6; Mus musculus, EMT6, 4 h",0.0028 µM
same,IC50,AA8; [5],0.0058 ± 0.0007 µM
"COc1cc2cc(C(=O)N3CC(CCl)c4c3cc(O)c3ncccc43)[nH]c2c(OC)c1OC (centres unmarked) [Compound 18a, 1-(Chloromethyl)-5-hydroxy-3-[(5,6,7-trimethoxyindol-2-yl)carbonyl]-2,3-dihydro-1H-pyrrolo[3,2-f]quinoline]",IC50,"UV4 cell line; Cricetulus griseus, UV4, 4 h",7e-05 ± 1.5e-05 µM
same,IC50,"SKOV3 [3]; anoxic, read-out: IC50 SKOV3 anoxic",0.00035 ± 9.3e-05 µM
same,IC50,"SKOV3 [3]; oxic, read-out: IC50 SKOV3 oxic",0.00025 ± 3.7e-05 µM
same,HCR SKOV3 (hypoxic cytotoxicity ratio),SKOV3 [3]; [6],0.61(1)
same,cytotoxicity in words,[2],exceptionally cytotoxic
same,"activation by endogenous enzymes under hypoxia, in words",HT29 cultures,not activated by endogenous enzymes under hypoxic conditions
same,IC50,"A549 wt/s; anoxic, read-out: IC50 A549 wt/s anoxic",0.05 ± 0.014 nM
same,IC50,"A549 wt/s; oxic, read-out: IC50 A549 wt/s oxic",0.05 ± 0.016 nM
same,HCR A549 wt/s (hypoxic cytotoxicity ratio),A549 wt/s; [6],0.79 ± 0.35(2)
same,IC50,"SKOV3 [1]; Homo sapiens, SK-OV-3, 4 h",0.00025 ± 3.7e-05 µM
same,IC50,"EMT6; Mus musculus, EMT6, 4 h",5.1e-05 ± 8e-06 µM
same,IC50,AA8; [5],0.00014 ± 2.2e-05 µM
"Oc1cccc2cccnc12 [Compound 8-HQ, 8-hydroxyquinoline, reference compound]",IC50,"UV4 cell line; Cricetulus griseus, UV4, 4 h",2.16 ± 0.12 µM
same,IC50,"SKOV3 [1]; Homo sapiens, SK-OV-3, 4 h",4.07 ± 0.89 µM
same,IC50,"EMT6; Mus musculus, EMT6, 4 h",3.92 ± 1.04 µM
same,IC50,AA8; [5],2.07 ± 0.02 µM
Cl.Cl.Cl.Cl.O=S(=O)(O)CCCCN1CCNCCNCCNCC1,melting point,,301 to 303 °C
COc1ccc(/C=C/C(=O)N2CC(CCl)c3c2cc(O)c2ncccc32)cc1O (centres unmarked),melting point,,215 to 218 °C
COc1ccc2[nH]c(C(=O)N3CC(CCl)c4c3cc(O)c3ncccc43)cc2c1 (centres unmarked),melting point,,186 to 189 °C
COc1ccc(/C=C/C(=O)N2CC(CCl)c3c2cc(O)c2ncccc32)cc1 (centres unmarked),melting point,,208 to 211 °C
"COc1cc2cc(C(=O)N3CC(CCl)c4c3cc(N)c3ncccc43)[nH]c2c(OC)c1OC (centres unmarked) [Compound 27, 5-Amino-1-(chloromethyl)-3-[(5,6,7-trimethoxyindol-2-yl)carbonyl]-2,3-dihydro-1H-pyrrolo[3,2-f]quinoline]",melting point,,258 to 263 °C
same,IC50,"UV4 cell line; Cricetulus griseus, UV4, 4 h aerobic exposure, mean ± sem",0.0029 ± 0.006 µM
same,cytotoxicity in words,[2],exceptionally cytotoxic
same,IC50,"SKOV3 [1]; Homo sapiens, SK-OV-3, 4 h aerobic exposure, mean ± sem",0.012 ± 0.0023 µM
same,IC50,"EMT6; Mus musculus, EMT6, 4 h aerobic exposure, mean ± sem",0.0026 ± 0.0005 µM
same,IC50,"AA8; Cricetulus griseus, CHO-AA8, 4 h aerobic exposure, mean ± sem",0.0079 ± 0.002 µM
CN(C)CCOC1(O)C=CC2=NC(C(=O)N3CC(CCl)c4c3ccc3ncccc43)=CC2=C1 (centres unmarked),melting point,,176 to 179 °C
